Earlier results in patent US20220016054A1, “EPINEPHRINE PARENTERAL FORMULATIONS” (Somerset Therapeutics LLC, priority 2020, published 2022).

Columns and labels:
[1] = fraction of that of l-epinephrine
[2] = tested on: beta-adrenergic receptors

| SMILES | pressor effect relative to l-epinephrine [1] | beta-adrenergic activity [2] |
| --- | --- | --- |
| CNC[C@H](O)c1ccc(O)c(O)c1 [d-epinephrine] | about one-fifteenth |  |
| CNCC(=O)c1ccc(O)c(O)c1 [adrenalone] |  | little if any beta-adrenergic activity |
